Experimental data from PubChem BioAssay AID256 (DTP/NCI, 2004).
Where “and” joins values, the source holds several entries; their conditions need not be identical. Identical values can stand only once. Toxic doses and inconclusive results are not listed. Rule for the calls: active = survival T/C of 150% or more; inactive = T/C below 125% in these data.

Tested on: CD2F1 mice, L1210 leukemia ip, survival T/C
Test: NCI In Vivo Anticancer Drug Screen. Data for tumor model L1210 Leukemia (intraperitoneal) in CD2F1 (CDF1) mice
Conditions: endpoint: mean survival time, higher = longer survival
How it was run: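 Each value reflects a quotient of treated over vehicle control outcomes in mice with a transplanted tumor.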

[1] = dose: 50.0 mg/kg/injection, schedule: Q01DX001 (ip), vehicle: saline
[2] = dose: 100.0 mg/kg/injection, schedule: Q01DX001 (ip), vehicle: saline
[3] = dose: 200.0 mg/kg/injection, schedule: Q01DX001 (ip), vehicle: saline
[4] = dose: 100.0 mg/kg/injection, schedule: Q01DX009 (ip), vehicle: saline with Tween-80
[5] = dose: 200.0 mg/kg/injection, schedule: Q01DX009 (ip), vehicle: saline with Tween-80
[6] = dose: 100.0 mg/kg/injection, schedule: Q01DX009 (ip), vehicle: saline
[7] = dose: 100.0 mg/kg/injection, schedule: Q04DX003 (ip), vehicle: saline
[8] = dose: 200.0 mg/kg/injection, schedule: Q01DX009 (ip), vehicle: saline
[9] = dose: 200.0 mg/kg/injection, schedule: Q04DX003 (ip), vehicle: saline
[10] = dose: 400.0 mg/kg/injection, schedule: Q01DX009 (ip), vehicle: saline
[11] = dose: 400.0 mg/kg/injection, schedule: Q04DX003 (ip), vehicle: saline
[12] = dose: 25.0 mg/kg/injection, schedule: Q01DX009 (ip), vehicle: saline

Measured: T/C

CS(=O)(=O)OCCC(=O)N1CCN(C(=O)CCOS(C)(=O)=O)CC1
active: dose: 16.0 mg/kg/injection, schedule: Q03HX016 (ip), vehicle: saline 169 % of control | dose: 16.0 mg/kg/injection, schedule: Q03HX024 (ip), vehicle: saline 200 % of control | dose: 32.0 mg/kg/injection, schedule: Q01DX009 (ip), vehicle: saline 165 % of control | dose: 32.0 mg/kg/injection, schedule: Q03HX008 (ip), vehicle: saline 182 % of control | dose: 32.0 mg/kg/injection, schedule: Q03HX016 (ip), vehicle: saline 207 % of control | dose: 32.0 mg/kg/injection, schedule: Q03HX024 (ip), vehicle: saline 168 % of control | dose: 64.0 mg/kg/injection, schedule: Q01DX009 (ip), vehicle: saline 208 % of control | dose: 128.0 mg/kg/injection, schedule: Q04DX003 (ip), vehicle: saline 193 % of control | dose: 128.0 mg/kg/injection, schedule: Q08DX002 (ip), vehicle: saline 194 % of control | dose: 256.0 mg/kg/injection, schedule: Q01DX001 (ip), vehicle: saline 166 % of control | dose: 256.0 mg/kg/injection, schedule: Q04DX003 (ip), vehicle: saline 181 % of control | dose: 256.0 mg/kg/injection, schedule: Q08DX002 (ip), vehicle: saline 228 % of control
inactive: dose: 4.0 mg/kg/injection, schedule: Q03HX024 (oral), vehicle: saline 97 % of control | dose: 8.0 mg/kg/injection, schedule: Q03HX008 (ip), vehicle: saline 120 % of control | dose: 8.0 mg/kg/injection, schedule: Q03HX008 (oral), vehicle: saline 93 % of control | dose: 8.0 mg/kg/injection, schedule: Q03HX016 (oral), vehicle: saline 94 % of control | dose: 8.0 mg/kg/injection, schedule: Q03HX024 (oral), vehicle: saline 100 % of control | dose: 16.0 mg/kg/injection, schedule: Q01DX009 (oral), vehicle: saline 101 % of control | dose: 16.0 mg/kg/injection, schedule: Q03HX008 (oral), vehicle: saline 96 % of control | dose: 16.0 mg/kg/injection, schedule: Q03HX016 (oral), vehicle: saline 100 % of control | dose: 16.0 mg/kg/injection, schedule: Q03HX024 (oral), vehicle: saline 109 % of control | dose: 32.0 mg/kg/injection, schedule: Q01DX009 (oral), vehicle: saline 103 % of control | dose: 32.0 mg/kg/injection, schedule: Q03HX008 (oral), vehicle: saline 102 % of control | dose: 32.0 mg/kg/injection, schedule: Q03HX016 (oral), vehicle: saline 95 % of control | dose: 32.0 mg/kg/injection, schedule: Q03HX024 (oral), vehicle: saline 114 % of control | dose: 32.0 mg/kg/injection, schedule: Q04DX003 (oral), vehicle: saline 100 % of control | dose: 64.0 mg/kg/injection, schedule: Q01DX001 (oral), vehicle: saline 98 % of control | dose: 64.0 mg/kg/injection, schedule: Q01DX009 (oral), vehicle: saline 105 % of control | dose: 64.0 mg/kg/injection, schedule: Q03HX008 (oral), vehicle: saline 106 % of control | dose: 64.0 mg/kg/injection, schedule: Q03HX016 (ip), vehicle: saline 103 % of control | dose: 64.0 mg/kg/injection, schedule: Q03HX016 (oral), vehicle: saline 97 % of control | dose: 64.0 mg/kg/injection, schedule: Q04DX003 (oral), vehicle: saline 105 % of control | dose: 64.0 mg/kg/injection, schedule: Q08DX002 (oral), vehicle: saline 92 % of control | dose: 128.0 mg/kg/injection, schedule: Q01DX001 (oral), vehicle: saline 98 % of control | dose: 128.0 mg/kg/injection, schedule: Q01DX009 (ip), vehicle: saline 124 % of control | dose: 128.0 mg/kg/injection, schedule: Q01DX009 (oral), vehicle: saline 110 % of control | dose: 128.0 mg/kg/injection, schedule: Q04DX003 (oral), vehicle: saline 95 % of control | dose: 128.0 mg/kg/injection, schedule: Q08DX002 (oral), vehicle: saline 90 % of control | dose: 256.0 mg/kg/injection, schedule: Q01DX001 (oral), vehicle: saline 94 % of control | dose: 256.0 mg/kg/injection, schedule: Q01DX009 (oral), vehicle: saline 110 % of control | dose: 256.0 mg/kg/injection, schedule: Q04DX003 (oral), vehicle: saline 100 % of control | dose: 256.0 mg/kg/injection, schedule: Q08DX002 (oral), vehicle: saline 96 % of control | dose: 512.0 mg/kg/injection, schedule: Q01DX001 (ip), vehicle: saline 89 % of control | dose: 512.0 mg/kg/injection, schedule: Q01DX001 (oral), vehicle: saline 96 % of control | dose: 512.0 mg/kg/injection, schedule: Q04DX003 (ip), vehicle: saline 103 % of control | dose: 512.0 mg/kg/injection, schedule: Q08DX002 (oral), vehicle: saline 94 % of control

Cc1ccc(-c2oc3ccccc3c(=O)c2O)cc1
inactive: [1] 98 % of control | [2] 92 % of control | [3] 98 % of control | dose: 400.0 mg/kg/injection, schedule: Q01DX001 (ip), vehicle: saline 98 % of control

N#C/C(=C1C=C/C(=N\O)C(Cl)=C\1)c1ccccc1
inactive: [4] 103 % of control | dose: 100.0 mg/kg/injection, schedule: Q04DX003 (ip), vehicle: saline with Tween-80 88 % of control | [5] 88 % of control | dose: 200.0 mg/kg/injection, schedule: Q04DX003 (ip), vehicle: saline with Tween-80 93 % of control | dose: 400.0 mg/kg/injection, schedule: Q04DX003 (ip), vehicle: saline with Tween-80 96 % of control

NCCCCCC(=O)O
inactive: dose: 25.0 mg/kg/injection, schedule: Q01DX001 (ip), vehicle: saline 98 % of control | [1] 98 % of control | [2] 93 % of control | [6] 94 % of control | [7] 89 % of control | [8] 96 % of control | [9] 98 % of control | [10] 97 % of control | [11] 102 % of control

OCC1OC(n2ncc3c2nnn2ncnc32)C(O)C1O (stereo not given)
inactive: dose: 25.0 mg/kg/injection, schedule: Q01DX005 (ip), vehicle: water 92 % of control | dose: 50.0 mg/kg/injection, schedule: Q01DX005 (ip), vehicle: water 99 % of control | dose: 100.0 mg/kg/injection, schedule: Q01DX005 (ip), vehicle: water 94 % of control | dose: 200.0 mg/kg/injection, schedule: Q01DX005 (ip), vehicle: water 87 % of control | dose: 400.0 mg/kg/injection, schedule: Q01DX005 (ip), vehicle: water 113 % of control

Nc1nc(=O)c2[nH]cnc2n1O
inactive: dose: 12.5 mg/kg/injection, schedule: Q04DX003 (ip), vehicle: acetone 97 % of control | dose: 16.5 mg/kg/injection, schedule: Q01DX009 (ip), vehicle: saline 102 % of control | [12] 102 % of control | dose: 25.0 mg/kg/injection, schedule: Q04DX003 (ip), vehicle: acetone 94 % of control | dose: 50.0 mg/kg/injection, schedule: Q04DX003 (ip), vehicle: acetone 97 % of control | dose: 55.0 mg/kg/injection, schedule: Q01DX009 (ip), vehicle: saline 118 % of control

CC1(C)C=CS1(=O)=O
inactive: dose: 50.0 mg/kg/injection, schedule: Q04DX003 (ip), vehicle: saline 98 % of control | [2] 103 % of control | [7] 96 % of control | [3] 102 % of control | [9] 101 % of control

CC(O)CNC1CCCCC1 (stereo not given)
inactive: dose: 25.0 mg/kg/injection, schedule: Q01DX009 (ip), vehicle: saline with Tween-80 97 % of control | dose: 50.0 mg/kg/injection, schedule: Q01DX009 (ip), vehicle: saline with Tween-80 97 % of control | [4] 97 % of control

O=C(O)CCCOc1ccc(Cl)cc1Cl
inactive: [7] 96 % of control | [9] 103 % of control | [11] 97 % of control

NC(CC(=O)NO)C(=O)O (stereo not given)
inactive: dose: 12.5 mg/kg/injection, schedule: Q01DX009 (ip), vehicle: saline 95 % of control | [12] 101 % of control | dose: 50.0 mg/kg/injection, schedule: Q01DX009 (ip), vehicle: saline 101 % of control | [6] 95 % of control | [8] 111 % of control and 95 % of control | [10] 103 % of control

N#Cc1ccccc1NC1OCC(O)C(O)C1O (stereo not given)
inactive: [4] 95 % of control | [5] 101 % of control | dose: 400.0 mg/kg/injection, schedule: Q01DX009 (ip), vehicle: saline with Tween-80 94 % of control
